ChEMBL document CHEMBL3045826, “Synthesis of new derivatives of 2,2-dimethyl-2,3-dihydro-7-benzo[b]furanol with potential antimicrobial activity” (Med Chem Res, 2009)
≈ marks a conversion by molar mass, not a printed value. Calls of active or inactive are those of the source. The calls are words filed in the database; no cut-off is given here.

What was measured:
Escherichia coli [1] = experiment: Antibacterial activity against Escherichia coli ATCC 10538 at 400 ug after 18 hr by disk diffusion method; type: functional
Pseudomonas aeruginosa [2] = experiment: Antibacterial activity against Pseudomonas aeruginosa NCTC 6749 at 400 ug after 18 hr by disk diffusion method; type: functional, organism-based
Escherichia coli [3] = experiment: Antibacterial activity against Escherichia coli NCTC 8196 at 400 ug after 18 hr by disk diffusion method; type: functional
Escherichia coli [4] = experiment: Antibacterial activity against Escherichia coli ATCC 25922 at 400 ug after 18 hr by disk diffusion method; type: functional
Staphylococcus aureus [5] = experiment: Antibacterial activity against Staphylococcus aureus ATCC 29213 at 400 ug after 18 hr by disk diffusion method; type: functional
[6] = tested on: Bordetella bronchiseptica; experiment: Antibacterial activity against Bordetella bronchiseptica ATCC 461 at 400 ug after 18 hr by disk diffusion method; type: functional
Staphylococcus aureus [7] = experiment: Antibacterial activity against Staphylococcus aureus ATCC 25923 at 400 ug after 18 hr by disk diffusion method; type: functional
Pseudomonas aeruginosa [8] = experiment: Antibacterial activity against Pseudomonas aeruginosa ATCC 15442 at 400 ug after 18 hr by disk diffusion method; type: functional
Candida albicans [9] = experiment: Antifungal activity against Candida albicans ATCC 90028 at 400 ug after 24 to 48 hr by disk diffusion method; type: functional
Staphylococcus aureus [10] = experiment: Antibacterial activity against Staphylococcus aureus ATCC 6538P at 400 ug after 18 hr by disk diffusion method; type: functional
Candida parapsilosis [11] = experiment: Antifungal activity against Candida parapsilosis ATCC 22019 at 400 ug after 24 to 48 hr by disk diffusion method; type: functional
Bacillus subtilis [12] = experiment: Antibacterial activity against Bacillus subtilis ATCC 6633 at 400 ug after 18 hr by disk diffusion method; type: functional
Candida albicans [13] = experiment: Antifungal activity against Candida albicans ATCC 10231 at 400 ug after 24 to 48 hr by disk diffusion method; type: functional
Staphylococcus aureus [14] = experiment: Antibacterial activity against Staphylococcus aureus NCTC 4163 at 400 ug after 18 hr by disk diffusion method; type: functional
Proteus vulgaris [15] = experiment: Antibacterial activity against Proteus vulgaris NCTC 4635 at 400 ug after 18 hr by disk diffusion method; type: functional
Enterococcus hirae [16] = experiment: Antibacterial activity against Enterococcus hirae ATCC 10541 at 400 ug after 18 hr by disk diffusion method; type: functional
[17] = tested on: Human immunodeficiency virus 1; experiment: Antiviral activity against Human immunodeficiency virus 1 infected human MT4 cells assessed as inhibition of virus-induced cytopathogenicity after 4 days by MTT assay; type: functional, organism-based; conditions: Human immunodeficiency virus 1, MT4, 96 h
[18] = Cytotoxicity against Homo sapiens (human) MT4 cells after 96 hr by MTT assay; type: cell-based
Escherichia coli [19] = experiment: Antibacterial activity against Escherichia coli ATCC 10538 after 18 hr; type: functional, organism-based
[20] = tested on: Bordetella bronchiseptica; experiment: Antibacterial activity against Bordetella bronchiseptica ATCC 461 after 18 hr; type: functional, organism-based
Candida parapsilosis [21] = experiment: Antifungal activity against Candida parapsilosis ATCC 22019 after 18 hr; type: functional; conditions: Lodderomyces parapsilosis, ATCC 22019, 18 h
Staphylococcus aureus [22] = experiment: Antibacterial activity against Staphylococcus aureus ATCC 25923 after 18 hr; type: functional; conditions: ATCC 25923, 18 h
Escherichia coli [23] = experiment: Antibacterial activity against Escherichia coli NCTC 8196 after 18 hr; type: functional, organism-based
Staphylococcus aureus [24] = experiment: Antibacterial activity against Staphylococcus aureus NCTC 4163 after 18 hr; type: functional; conditions: NCTC 4163, 18 h
Bacillus subtilis [25] = experiment: Antibacterial activity against Bacillus subtilis ATCC 6633 after 18 hr; type: functional; conditions: ATCC 6633, 18 h
Candida albicans [26] = experiment: Antifungal activity against Candida albicans ATCC 10231 after 18 hr; type: functional; conditions: ATCC 10231, 18 h
Pseudomonas aeruginosa [27] = experiment: Antibacterial activity against Pseudomonas aeruginosa NCTC 6749 after 18 hr; type: functional, organism-based
Staphylococcus aureus [28] = experiment: Antibacterial activity against Staphylococcus aureus ATCC 6538P after 18 hr; type: functional
Candida albicans [29] = experiment: Antifungal activity against Candida albicans ATCC 90028 after 18 hr; type: functional; conditions: ATCC 90028, 18 h
Enterococcus hirae [30] = experiment: Antibacterial activity against Enterococcus hirae ATCC 10541 after 18 hr; type: functional; conditions: ATCC 10541, 18 h
Pseudomonas aeruginosa [31] = experiment: Antibacterial activity against Pseudomonas aeruginosa ATCC 15442 after 18 hr; type: functional; conditions: ATCC 15442, 18 h
Proteus vulgaris [32] = experiment: Antibacterial activity against Proteus vulgaris NCTC 4635 after 18 hr; type: functional; conditions: NCTC 4635, 18 h
Escherichia coli [33] = experiment: Antibacterial activity against Escherichia coli ATCC 25922 after 18 hr; type: functional, organism-based
Staphylococcus aureus [34] = experiment: Antibacterial activity against Staphylococcus aureus ATCC 29213 after 18 hr; type: functional; conditions: ATCC 29213, 18 h

With `CC1(C)Cc2c(Br)c(Br)c(Br)c(OCC(O)CN3CCN(c4ccc(F)cc4)CC3)c2O1` (stereo not given) the “diameter of the inhibition zone (DIZ)” value (Escherichia coli [1]) was “inactive”, the “diameter of the inhibition zone (DIZ)” value (Pseudomonas aeruginosa [2]) was “inactive” and the “diameter of the inhibition zone (DIZ)” value (Escherichia coli [3]) was “inactive”. For the same compound, the “diameter of the inhibition zone (DIZ)” value (Escherichia coli [4]) was “inactive”, the “diameter of the inhibition zone (DIZ)” value (Staphylococcus aureus [5]) was “inactive” and the “diameter of the inhibition zone (DIZ)” value [6] was “inactive”. The “diameter of the inhibition zone (DIZ)” value (Staphylococcus aureus [7]) was “inactive”, the “diameter of the inhibition zone (DIZ)” value (Pseudomonas aeruginosa [8]) was “inactive” and the “diameter of the inhibition zone (DIZ)” value (Candida albicans [9]) was “inactive”. For the same compound, the “diameter of the inhibition zone (DIZ)” value (Staphylococcus aureus [10]) was “inactive”, the “diameter of the inhibition zone (DIZ)” value (Candida parapsilosis [11]) was “inactive” and the “diameter of the inhibition zone (DIZ)” value (Bacillus subtilis [12]) was “inactive”. The “diameter of the inhibition zone (DIZ)” value (Candida albicans [13]) was “inactive”, the “diameter of the inhibition zone (DIZ)” value (Staphylococcus aureus [14]) was “inactive” and the “diameter of the inhibition zone (DIZ)” value (Proteus vulgaris [15]) was “inactive”. For the same compound, the “diameter of the inhibition zone (DIZ)” value (Enterococcus hirae [16]) was “inactive”.
For `CC1(C)Cc2c(Br)c(Br)c(Br)c(OCC(O)CN3CCN(c4ccccc4)CC3)c2O1` (stereo not given), the EC50 [17] was greater than 31 µM and the CC50 at 96 h [18] was 31 µM.
With `CC(C)NCC(O)COc1c(Br)c(Br)c(Br)c2c1OC(C)(C)C2` (stereo not given) the MIC (Escherichia coli [19]) was “inactive”, the “diameter of the inhibition zone (DIZ)” value (Escherichia coli [1]) was “inactive” and the “diameter of the inhibition zone (DIZ)” value (Pseudomonas aeruginosa [2]) was “inactive”. For the same compound, the MIC [20] was “inactive”, the MIC (Candida parapsilosis [21]) was 100 µg/mL (≈ 194 µM) and the zone of inhibition at 400 µg/disc (Escherichia coli [3]; NCTC 8196, 18 h, read-out: DIZ) was 11 mm. The MIC (Staphylococcus aureus [22]) was 25 µg/mL (≈ 48.4 µM), the “diameter of the inhibition zone (DIZ)” value (Escherichia coli [4]) was “inactive” and the MIC (Escherichia coli [23]) was “inactive”. The MIC (Staphylococcus aureus [24]) was 50 µg/mL (≈ 96.9 µM), the zone of inhibition at 400 µg/disc (Staphylococcus aureus [5]; ATCC 29213, 18 h, read-out: DIZ) was 20 mm and the MIC (Bacillus subtilis [25]) was 12.5 µg/mL (≈ 24.2 µM). It also gave a zone of inhibition at 400 µg/disc ([6]; ATCC 461, 18 h, read-out: DIZ) of 11 mm, an MIC (Candida albicans [26]) of 200 µg/mL (≈ 388 µM) and a zone of inhibition at 400 µg/disc (Staphylococcus aureus [7]; ATCC 25923, 18 h, read-out: DIZ) of 18 mm. The zone of inhibition at 400 µg/disc (Pseudomonas aeruginosa [8]; ATCC 15442, 18 h, read-out: DIZ) was 22 mm, the zone of inhibition at 400 µg/disc (Candida albicans [9]; read-out: DIZ) was 15 mm and the MIC (Pseudomonas aeruginosa [27]) was “inactive”. For the same compound, the zone of inhibition at 400 µg/disc (Staphylococcus aureus [10]; read-out: DIZ) was 21 mm, the MIC (Staphylococcus aureus [28]) was 25 µg/mL (≈ 48.4 µM) and the MIC (Candida albicans [29]) was 200 µg/mL (≈ 388 µM). It also gave a zone of inhibition at 400 µg/disc (Candida parapsilosis [11]; Lodderomyces parapsilosis, read-out: DIZ) of 17 mm, a zone of inhibition at 400 µg/disc (Bacillus subtilis [12]; ATCC 6633, 18 h, read-out: DIZ) of 23 mm and an MIC (Enterococcus hirae [30]) of 25 µg/mL (≈ 48.4 µM). For the same compound, the MIC (Pseudomonas aeruginosa [31]) was 12.5 µg/mL (≈ 24.2 µM), the MIC (Proteus vulgaris [32]) was 12.5 µg/mL (≈ 24.2 µM) and the MIC (Escherichia coli [33]) was “inactive”. The MIC (Staphylococcus aureus [34]) was 25 µg/mL (≈ 48.4 µM), the zone of inhibition at 400 µg/disc (Candida albicans [13]; read-out: DIZ) was 16 mm and the zone of inhibition at 400 µg/disc (Staphylococcus aureus [14]; NCTC 4163, 18 h, read-out: DIZ) was 20 mm. It also gave a zone of inhibition at 400 µg/disc (Proteus vulgaris [15]; NCTC 4635, 18 h, read-out: DIZ) of 24 mm and a zone of inhibition at 400 µg/disc (Enterococcus hirae [16]; ATCC 10541, 18 h, read-out: DIZ) of 17 mm.
